From patent publication USRE47689E1, “Compounds for treating spinal muscular atrophy” (PTC Therapeutics, Inc., priority 2011, dated 2019)
Like-named read-outs stand apart in the source and are kept apart here.

Legend:
[1] = system: SMN2 minigene (full length SMN2 minigene mRNA containing SMN2 exon 7); assay: SMN2 minigene mRNA splicing RT-qPCR assay in cultured cells; type: cell-based, human; conditions: Homo sapiens, HEK293-H, read-out: EC1.5x for production of full length SMN2 mRNA
Outline: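 Full-length SMN2 minigene mRNA (exon 7 included), minigene-specific and not endogenous SMN, quantified by RT-qPCR multiplexed with GAPDH in stably transfected HEK293H cells after 24 h compound exposure at 37° C. Abundance from efficiency-corrected Ct, normalized to GAPDH and vehicle; EC1.5x reported as star bins.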

[2] = system: Smn protein; assay: Smn protein assay in cultured cells (SMN HTRF); type: cell-based, human; conditions: 48 hours; for EC1.5x (concentration giving 1.5-fold Smn protein increase): SMA Type 1 patient fibroblast cells (GM03813), 7-point concentration curve, SMN HTRF, concentration producing 1.5 times Smn protein vs DMSO vehicle control, read-out: EC1.5x for Smn protein expression; for maximum fold (Fold) increase of Smn protein: SMA patient fibroblast cells, 7-point concentration data, fold increase relative to vehicle control (SMN HTRF)
Outline: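 Smn in SMA fibroblast lysates, measured by anti-SMN HTRF after 48 h compound exposure; EC1.5x from fold change over vehicle.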

[3] = HEK293H cells stably transfected with SMN2-A minigene, 24 hours, 7-point concentration curve, 1.5-fold relative to vehicle-treated cells

SMILES | melting point [°C] | EC (1.5-fold) [1, 3] [µM] | EC1.5x (concentration giving 1.5-fold Smn protein increase) [2] [nM] | maximum fold (Fold) increase of Smn protein [2] | EC (1.5-fold) ([1]; 24 h) [µM]
CN1CCCN(c2ccc3cc(-c4cn5cccc(C(F)(F)F)c5n4)c(=O)oc3c2)CC1 [Compound 293, 7-(4-methyl-1,4-diazepan-1-yl)-3-[8-(trifluoromethyl)imidazo[1,2-a]pyridin-2-yl]-2H-chromen-2-one] | 196 to 199 | 0.3 to 1 | – | * (maximum fold increase of ≤1.2) | –
Cc1ccn2cc(-c3cc4ccc(N(C)CCN(C)C)cc4oc3=O)nc2n1 [Compound 226, 7-{[2-(dimethylamino)ethyl](methyl)amino}-3-(7-methylimidazo[1,2-a]pyrimidin-2-yl)-2H-chromen-2-one] | 188 to 191 | 3 to 30 | – | * (maximum fold increase of ≤1.2) | –
Cc1cn2cc(-c3cc4ccc(N5CCN(C)[C@H](C)C5)cc4oc3=O)nc2cn1 [Compound 628, 7-[(3R)-3,4-dimethylpiperazin-1-yl]-3-(6-methylimidazo[1,2-a]pyrazin-2-yl)-2H-chromen-2-one] | 256 to 258 | < 0.1 | < 300 | **** (fold increase between >1.5 and ≤1.65) | –
CCc1cc(C)cn2cc(-c3cc4ccc(N5CCN(C)CC5)cc4oc3=O)nc12 [Compound 340, 3-(8-ethyl-6-methylimidazo[1,2-a]pyridin-2-yl)-7-(4-methylpiperazin-1-yl)-2H-chromen-2-one] | 203 to 210 | 0.3 to 1 | – | * (maximum fold increase of ≤1.2) | –
C[C@@H]1CN(c2ccc3cc(-c4nc5c(Cl)cccc5s4)c(=O)oc3c2)C[C@H](C)N1 [Compound 25, 3-(4-chloro-1,3-benzothiazol-2-yl)-7-[(3R,5S)-3,5-dimethylpiperazin-1-yl]-2H-chromen-2-one] | 229 to 235 | 0.3 to 1 | – | * (maximum fold increase of ≤1.2) | –
CN(C)Cc1ccc2cc(-c3cn4ccsc4n3)c(=O)oc2c1 [Compound 198, 7-[(dimethylamino)methyl]-3-(imidazo[2,1-b][1,3]thiazol-6-yl)-2H-chromen-2-one] | 135 to 140 | 0.3 to 1 | 3000 to 10000 | **** (fold increase between >1.5 and ≤1.65) | –
COc1ccc(-c2cc3ccc(N4CCN[C@@H](C)C4)cc3oc2=O)cc1 [Compound 449, 3-(4-methoxyphenyl)-7-[(3S)-3-methylpiperazin-1-yl]-2H-chromen-2-one] | 123 to 126 | 1 to 3 | – | * (maximum fold increase of ≤1.2) | –
O=c1oc2cc(N3CC4CCC(C3)N4)ccc2cc1-c1cn2cccc(F)c2n1 [Compound 506, 7-(3,8-diazabicyclo[3.2.1]oct-3-yl)-3-(8-fluoroimidazo[1,2-a]pyridin-2-yl)-2H-chromen-2-one] | 232 to 235 | – | – | ** (fold increase between >1.2 and ≤1.35) | 0.1 to 0.3
CN1CCN(c2ccc3cc(-c4cn5ccc(C(F)(F)F)cc5n4)c(=O)oc3c2)CC1 [Compound 115, 7-(4-methylpiperazin-1-yl)-3-[7-(trifluoromethyl)imidazo[1,2-a]pyridin-2-yl]-2H-chromen-2-one] | 274 to 280 | 0.3 to 1 | – | *** (fold increase between >1.35 and ≤1.5) | –
CCN1CCN(c2ccc3cc(-c4cccc(OC)n4)c(=O)oc3c2)CC1 [Compound 360, 7-(4-ethylpiperazin-1-yl)-3-(6-methoxypyridin-2-yl)-2H-chromen-2-one] | 145 to 147 | 1 to 3 | – | * (maximum fold increase of ≤1.2) | –
CN1CCN(c2ccc3cc(-c4cn5cc(F)ccc5n4)c(=O)oc3c2)CC1 [Compound 138, 3-(6-fluoroimidazo[1,2-a]pyridin-2-yl)-7-(4-methylpiperazin-1-yl)-2H-chromen-2-one] | 266 to 269 | 1 to 3 | – | ** (fold increase between >1.2 and ≤1.35) | –
COc1c(F)cc(F)cc1-c1cc2ccc(N3CCN[C@@H](C)C3)cc2oc1=O [Compound 539, 3-(3,5-difluoro-2-methoxyphenyl)-7-[(3S)-3-methylpiperazin-1-yl]-2H-chromen-2-one] | 156 to 158 | 3 to 30 | – | * (maximum fold increase of ≤1.2) | –
CN(C)Cc1ccc2cc(-c3nc4ccccc4[nH]3)c(=O)oc2c1 [Compound 396, 3-(1H-benzimidazol-2-yl)-7-[(dimethylamino)methyl]-2H-chromen-2-one] | 214 to 218 | 1 to 3 | – | ** (fold increase between >1.2 and ≤1.35) | –

Second part, led by results:

melting point [°C] | SMILES | EC (1.5-fold) [1, 3] [µM] | EC1.5x (concentration giving 1.5-fold Smn protein increase) [2] [nM] | maximum fold (Fold) increase of Smn protein [2] | EC (1.5-fold) ([1]; 24 h) [µM]
184 to 188 | Cc1cn2cc(-c3cc4ccc(CCN(CCO)CCO)cc4oc3=O)nc2c(C)n1 [Compound 875, 7-{2-[bis(2-hydroxyethyl)amino]ethyl}-3-(6,8-dimethylimidazo[1,2-a]pyrazin-2-yl)-2H-chromen-2-one] | < 0.1 | < 300 | **** (fold increase between >1.5 and ≤1.65) | –
177 to 180 | CC(C)Oc1cccc(-c2cc3ccc(N4CCNCC4)cc3oc2=O)n1 [Cpd 385, 7-(piperazin-1-yl)-3-[6-(propan-2-yloxy)pyridin-2-yl]-2H-chromen-2-one] | 1 to 3 | – | * (maximum fold increase of ≤1.2) | –
182 to 185 | Cc1cn2cc(-c3cc4ccc(CCCN5CCC[C@@H]5CO)cc4oc3=O)nc2c(C)n1 [Compound 883, 3-(6,8-dimethylimidazo[1,2-a]pyrazin-2-yl)-7-{3-[(2R)-2-(hydroxymethyl)pyrrolidin-1-yl]propyl}-2H-chromen-2-one] | < 0.1 | < 300 | ***** (fold increase >1.65) | –
147 to 150 | COCCNCCCc1ccc2cc(-c3cn4cc(C)nc(C)c4n3)c(=O)oc2c1 [Compound 931, 3-(6,8-dimethylimidazo[1,2-a]pyrazin-2-yl)-7-{3-[(2-methoxyethyl)amino]propyl}-2H-chromen-2-one] | < 0.1 | 300 to 1000 | **** (fold increase between >1.5 and ≤1.65) | –
193 to 196 | Cc1cn2cc(-c3cc4ccc(N5CC[C@H](NC(=O)OC(C)(C)C)C5)cc4oc3=O)cc2c(C)n1 [Compound 724, tert-butyl {(3S)-1-[3-(1,3-dimethylpyrrolo[1,2-a]pyrazin-7-yl)-2-oxo-2H-chromen-7-yl]pyrrolidin-3-yl}carbamate] | 1 to 3 | – | * (maximum fold increase of ≤1.2) | –
130 to 133 | CC(c1ccc2cc(-c3nc4ccccc4s3)c(=O)oc2c1)N(C)C (centres unmarked) [Cpd 143, 3-(1,3-benzothiazol-2-yl)-7-[1-(dimethylamino)ethyl]-2H-chromen-2-one] | 1 to 3 | – | *** (fold increase between >1.35 and ≤1.5) | –
224 to 229 | Cc1cn2cc(-c3cc4ccc(C5CCNCC5)cc4oc3=O)nc2c(C)n1 [Cpd 742, 3-(6,8-dimethylimidazo[1,2-a]pyrazin-2-yl)-7-(piperidin-4-yl)-2H-chromen-2-one] | < 0.1 | < 300 | ***** (fold increase >1.65) | –
236 to 243 | Cc1cn2cc(-c3cc4ccc(C5CCN(C6CC6)CC5)cc4oc3=O)nc2c(C)n1 [Compound 854, 7-(1-cyclopropylpiperidin-4-yl)-3-(6,8-dimethylimidazo[1,2-a]pyrazin-2-yl)-2H-chromen-2-one] | < 0.1 | < 300 | ***** (fold increase >1.65) | –
247 to 253 | Cc1cn2cc(-c3cc4ccc(C5CCNCC5)cc4oc3=O)nc2cn1 [Compound 868, 3-(6-methylimidazo[1,2-a]pyrazin-2-yl)-7-(piperidin-4-yl)-2H-chromen-2-one] | < 0.1 | < 300 | ***** (fold increase >1.65) | –
222 to 225 | Cc1cn2cc(-c3cc4ccc(N5CCCNCC5)cc4oc3=O)ccc2n1 [Compound 663, 7-(1,4-diazepan-1-yl)-3-(2-methylimidazo[1,2-a]pyridin-6-yl)-2H-chromen-2-one] | < 0.1 | – | *** (fold increase between >1.35 and ≤1.5) | –
275 to 280 | CN1CCN(c2ccc3cc(-c4cn5cc(F)cnc5n4)c(=O)oc3c2)CC1 [Cpd 480, 3-(6-fluoroimidazo[1,2-a]pyrimidin-2-yl)-7-(4-methylpiperazin-1-yl)-2H-chromen-2-one] | 3 to 30 | – | * (maximum fold increase of ≤1.2) | –
